The values below come from ChEMBL document CHEMBL1131882, “Unsymmetrical cyclic ureas as HIV-1 protease inhibitors: novel biaryl indazoles as P2/P2' substituents” (Bioorg Med Chem Lett, 1999).

In test [1] the test system is Human immunodeficiency virus 1. Nature of the test: Inhibitory activity against Ritonavir resistant virus mutant strain. The class given is functional.
For test [2], the target named is Human immunodeficiency virus type 1 protease (Human immunodeficiency virus 1, UniProt Q72874). Put plainly: Binding affinity for HIV -1 Protease.
The target in test [3] is Human immunodeficiency virus type 1 protease (Human immunodeficiency virus 1) (UniProt Q72874). Nature of the test: Inhibitory activity against HIV -1 Protease in whole cell assay.

A word on the IC90: it is the point of the concentration-response curve where the effect stands at 90%. A lower IC90 goes with an effect from little substance. In general, Ki refers to the equilibrium dissociation constant of an inhibitor or competing ligand from its target. The low end stands for a stronger hold on the target, the high end for a looser hold on the target.

Bounds are passed on as bounds.

`CC(C)c1nc(CN(C)C(=O)N[C@H](C(=O)N[C@@H](Cc2ccccc2)C[C@H](O)[C@H](Cc2ccccc2)NC(=O)OCc2cncs2)C(C)C)cs1` [RITONAVIR]: in test [1], the IC90 is 4500 nM.
As for `COc1cccc(-c2n[nH]c3ccc(CN4C(=O)N(Cc5cccc(N)c5)[C@H](Cc5ccccc5)[C@H](O)[C@@H](O)[C@H]4Cc4ccccc4)cc23)c1`, the Ki in test [2] was 0.24 nM.
Compound `Nc1cccc(CN2C(=O)N(Cc3ccc4[nH]nc(-c5ccc(F)cc5)c4c3)[C@H](Cc3ccccc3)[C@H](O)[C@@H](O)[C@H]2Cc2ccccc2)c1` yielded a Ki in test [2] of 0.3 nM. The IC90 in test [1] is more than 5000 nM; in test [3], 39 nM.
With `Nc1cccc(CN2C(=O)N(Cc3ccc4[nH]nc(-c5ccc(C(F)(F)F)cc5)c4c3)[C@H](Cc3ccccc3)[C@H](O)[C@@H](O)[C@H]2Cc2ccccc2)c1`, the Ki in test [2] is 0.25 nM. This compound also had an IC90 in test [3] of 255 nM.
Compound `COc1ccc(-c2[nH]nc3ccc(CN4C(=O)N(Cc5cccc(N)c5)[C@H](Cc5ccccc5)[C@H](O)[C@@H](O)[C@H]4Cc4ccccc4)cc23)cc1` showed a Ki in test [2] of 0.26 nM. The IC90 came out at 4190 nM in test [1] and 14 nM in test [3].
Consider `COc1cccc(-c2[nH]nc3ccc(CN4C(=O)N(Cc5cccc(N)c5)[C@H](Cc5ccccc5)[C@H](O)[C@@H](O)[C@H]4Cc4ccccc4)cc23)c1`, for which the IC90 in test [1] is 3140 nM; in test [3], 33 nM.
For the compound `Nc1cccc(CN2C(=O)N(Cc3ccc4[nH]nc(-c5cccc(N)c5)c4c3)[C@H](Cc3ccccc3)[C@H](O)[C@@H](O)[C@H]2Cc2ccccc2)c1`, affinity in test [2] was put at a Ki of 0.09 nM. Moreover, the IC90 in test [1] is 1300 nM; in test [3] it was 30 nM.
In test [2], `Nc1cccc(CN2C(=O)N(Cc3ccc4[nH]nc(-c5ccsc5)c4c3)[C@H](Cc3ccccc3)[C@H](O)[C@@H](O)[C@H]2Cc2ccccc2)c1` came in with an inhibition constant (Ki) of 0.13 nM. Moreover, the results for the IC90 in test [1] and in test [3] were more than 5000 nM and 32 nM, respectively.
Compound `Nc1cccc(CN2C(=O)N(Cc3ccc4[nH]nc(-c5cccc(C(F)(F)F)c5)c4c3)[C@H](Cc3ccccc3)[C@H](O)[C@@H](O)[C@H]2Cc2ccccc2)c1` had a Ki in test [2] of 0.61 nM. The same compound displayed an IC90 in test [3] of 39 nM.
In the case of `Nc1cccc(CN2C(=O)N(Cc3ccc4[nH]ncc4c3)[C@H](Cc3ccccc3)[C@H](O)[C@@H](O)[C@H]2Cc2ccccc2)c1`, the IC90 in test [1] is 825 nM; in test [3] it was 11 nM.
For the compound `Nc1cccc(CN2C(=O)N(Cc3ccc4[nH]nc(-c5cc[nH]n5)c4c3)[C@H](Cc3ccccc3)[C@H](O)[C@@H](O)[C@H]2Cc2ccccc2)c1`, the Ki in test [2] is 0.058 nM. Moreover, the IC90 in test [1] was found to be 525 nM; in test [3] it was 108 nM.
In test [2], `Nc1cccc(CN2C(=O)N(Cc3ccc4[nH]nc(-c5cccs5)c4c3)[C@H](Cc3ccccc3)[C@H](O)[C@@H](O)[C@H]2Cc2ccccc2)c1` came in with a Ki of 0.18 nM. Moreover, the IC90 in test [1] is more than 5000 nM; in test [3] it was 31 nM.
